Test results from patent US9809640B2, “ApoE peptide dimers and uses thereof” (priority 2010, dated 2017).
Positions of bridges follow the written chain, without caps; N, C: chain ends. Chains are numbered I, II in the order given.

What was measured:
[1] = test system: EGFR; assay: EGF-induced EGFR activation, Western blot; assay type: cell-based; details: up to 1 μM, U87 and MB231, EGF
Excerpt: FIGS. 10A-10B. […] FIG. 10A: Western blot analysis of U87 glioblastoma cells exposed to the indicated concentrations of COG445 peptide in the presence of EGF. The blot is probed with antibodies for the activated EGF receptor (P-EGFR), total EGF receptor, activated PDK1 (P-PDK1), and total PDK1. FIG. 10B: Western blot and densitometry analysis of Akt activation induced by EGF in U87 cells in the presence of increasing concentrations of COG445.
Akt signaling is often dysregulated in cancers thereby promoting cellular survival and proliferation. […] Given the effect of ApoE peptides on other inflammatory pathologies, we investigated the effect of an ApoE peptide dimer on Akt signaling in breast and brain cancer cells. A disulfide dimer of COG112 (SEQ ID NO: 1) was prepared as described in Example 1 (COG445). Adherent breast cancer cells, MDA-MB-231 (MB231), or glioblastoma cells, U87-MG (U87), were serum starved overnight and then exposed to COG445 for 2 hours before stimulating with epidermal growth factor (EGF) for 5 minutes. […] EGFR activation results in the activation of the PI3K/Akt signaling pathway, which is mediated by PDK1 activation.

[2] = test system: MDA-MB-231 breast cancer cells; assay type: cell-based; details: MB231, ~24 hours
Procedure: FIG. 14A: Dose response curve of COG445 on proliferation of U87 (open circles) and MDA-MB-231 (filled circles) cells as measured by MTT reduction. FIG. 14B: Dose response curve of COG445 on proliferation of MDA-MB-231 cells as measured by cell count.
Next, we examined the potency of an ApoE peptide dimer versus the monomeric form on proliferation of the MDA-MB-231 breast cancer cell line. MDA-MB-231 cells were treated with various concentrations of either COG435 (monomer; SEQ ID NO: 90) or COG493 (a BMOE-linked dimer of COG 435) peptides for 48 hours. Following peptide treatment, cells were quantified using a MTT assay.
Because COG445 inhibited Akt activation and downstream signaling, we examined the effects of COG445 on cellular proliferation. Adherent MB231 and U87 cells were grown for ˜24 hours in the presence of COG445 and cellular proliferation was measured by MTT reduction. […] Furthermore, COG445 inhibited MB231 cellular proliferation as determined by cell count (FIG. 14B). Approximately 6×10^4 cells were plated in growth media (RPMI+10% FBS) for 24-hours with increasing concentrations of COG445. […] However at concentrations ≧1 μM COG445, there appears to be a loss of cells. This is partially explained by decreased proliferation, although it is possible that the rate of cellular degradation was increased in the presence of COG445.

[3] = test system: B-CLL cells; assay: Cytotoxicity on patient-derived B-CLL cells (MTS assay)
Excerpt: FIG. 5A: Dose response curves for COG449 cytotoxicity on CLL cells from 4 leukemia patients. Human CLL cells were isolated from blood samples and assayed for COG449 cytotoxicity. […] FIG. 5B: Dose response curves for COG445 on CLL cells from 7 patients or normal B-cells from 5 patients. Human CLL cells and PBMC were isolated and assayed for cytotoxicity of COG445.
Blood from CLL patients was collected and CD5+/CD19+ CLL cells were isolated using the RosetteSep™ Human B-Cell Enrichment Cocktail, according to the manufacturer's instructions, and treated with COG compounds. Compounds were applied to B-CLL cells (2.5×10^5 cells/well in a 96 well plate), after which the cells were treated for 72 hours.
Normal B-cells from volunteers and B-CLL cells from patients are isolated using the RosetteSep™ Human B Cell Enrichment Cocktail according to the manufacturer's instructions. This method depletes whole blood of T cells, monocytes, and NK cells using a proprietary antibody cocktail that cross-links unwanted cells in human whole blood to multiple red blood cells (RBCs) forming immunorosettes. This increases the density of the unwanted (rosetted) cells, such that they pellet along with the free RBCs when centrifuged over a buoyant density medium such as Ficoll-Paque®. This leaves the highly enriched B-cell or B-CLL cells at the interface between Ficoll and the plasma. The antibodies in the cocktail contain […] and anti-CD16 antibodies to remove T cells, monocytes, and NK cells, respectively. The purity of these B-cell and B-CLL preparations is then determined by flow cytometry.
For cytotoxicity assays, 3×10^6 CLL cells/well are cultured in 24 well tissue culture plates in 1.5 mL of Hybridoma SFM™ (Gibco, Long Island, N.Y.) as described by Levesque et al. (2001, 2003). All cultures are incubated at 37° C., 5% CO2 in air.

[4] = test system: MB231 cells; assay: Apoptosis after 24 hours of COG445; assay type: cell-based; details: 1-1000 nM
[5] = biological target: T1, I2PP2A (SET) / PP2A catalytic subunit (Homo sapiens, UniProt Q01105); assay: Co-immunoprecipitation of I2PP2A (SET) with PP2A catalytic subunit in MB231 cells; assay type: cell-based; details: 0.1 or 1 μM pre-treatment
T1 construct: endogenous in cells; host or cells: MDA-MB-231
T1 sequence (Q01105 2-290 limits assumed): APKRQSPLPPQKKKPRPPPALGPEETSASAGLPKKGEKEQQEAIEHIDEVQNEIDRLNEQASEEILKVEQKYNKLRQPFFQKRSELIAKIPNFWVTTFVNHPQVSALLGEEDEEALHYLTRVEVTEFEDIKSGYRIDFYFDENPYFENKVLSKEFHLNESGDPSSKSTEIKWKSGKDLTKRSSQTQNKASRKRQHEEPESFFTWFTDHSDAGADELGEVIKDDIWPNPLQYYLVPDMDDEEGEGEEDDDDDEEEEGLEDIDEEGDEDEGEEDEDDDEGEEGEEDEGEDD
Excerpt: FIG. 12A: Total PP2A activity immunoprecipitated from MDA-MB-231 cells treated with EGF and increasing concentrations of COG445. FIG. 12B: Western blot and densitometry analysis of total c-myc protein levels in U87 cells treated with the indicated concentrations of COG445 in the presence or absence of okadaic acid. FIG. 12C: Immunoprecipitation of the catalytic subunit of PP2A from MDA-MB-231 cells exposed to EGF and two different concentrations of COG445. The blot is probed for I2PP2A (SET) and PP2A catalytic subunit.
To examine the mechanism of COG445 on PP2A activity, recombinant human PP2A catalytic subunit was incubated with COG445 and activity was measured. […] To further explore the changes of PP2A protein complexes, co-immunoprecipitation experiments were performed on MB231 cells.

“I: Ac-RQIKIWFQNRRMKWKKCLRVRLASHLRKLRKRLL-NH2 / II: Ac-RQIKIWFQNRRMKWKKCLRVRLASHLRKLRKRLL-NH2 (disulfide I:17-II:17) [COG445, COG112-C-C-COG112]” was tested, and the “EGFR activation (tyrosine 1045 phosphorylation)” value [1] was “did not alter”, the “proliferation by MTT reduction” value [2] was “dose-dependent decrease” and the “Fold Change” value ([3]; CLL EC50 relative to COG056 (rev133) = 1.0) was 117.3. For the same substance, the EC50 ([3]; read-out: ED50 for cytotoxicity of CLL cells, purified disulfide dimer, dimer molecular weight) was 0.11 µM, the apoptosis [4] was “no indication of apoptosis” and the “association of I2PP2A to the catalytic subunit of PP2A” value [5] was “strongly diminished”.
